# Experimental data from patent US20220348572A1, “BRIDGED HETEROCYCLYL-SUBSTITUTED PYRIMIDINE COMPOUND, PREPARATION METHOD THEREFOR, AND PHARMACEUTICAL USE THEREOF” (The National Institutes of Pharmaceutical R&D Co., Ltd., priority 2019, published 2022).
# Biological target: T1, JAK1 kinase (Homo sapiens, UniProt P23458)
# T1 construct: purchased Invitrogen PV4744
# Experiment: In vitro inhibitory activity on JAK1 kinase (ADP-Glo Kinase Assay)
# Assay type: biochemical
# Settings: JAK1 kinase 4 nM, 1 mM ATP
# Protocol: Test Example 1: Determination of In Vitro Inhibitory Activity of the Compounds of the Present Invention on JAK1 Kinase Experimental materials: JAK1 kinase (Invitrogen, PV4744), ATP (Promega, V915B), ADP-Glo Kinase Assay (Promega, V9101), IRS1 (Signalchem, 140-58-1000). Sample preparation: The compounds of the present invention and the control product were dissolved in DMSO solvent respectively to formulate into 10 mM initial liquid. The maximum concentration of the compound was 10 μM, 3-fold dilution, 10 concentration gradients, and duplicate wells for each concentration gradient. Experimental processs: 0.1 μL of the compound to be tested was transferred into a 384 reaction plate (PE, 6007290) via Echo and centrifuged at 1000 rpm/min for 1 min. 5 μL JAK1 kinase (final concentration of 4 nM) was transferred into the 384 reaction plate, which was then centrifuged at 1000 rpm/min for 1 min, and incubated at 25° C. for 15 min. 5 μL substrate mixture (1 mM ATP, IRS1 0.05 mg/ml, kinase buffer solution) was transferred into the 384 reaction plate, which was then centrifuged at 1000 rpm/min for 1 min, and incubated at 25° C. for 60 min. 10 μL ADP-Glo was transferred into the 384 reaction plate, which was then centrifuged at 1000 rpm/min for 1 min, and incubated at 25° C. for 40 min. 20 μL test solution was transferred into the 384 reaction plate, which was then centrifuged at 1000 rpm/min for 1 min and incubated at 25° C. for 40 min. RLU (Relative luminescence unit) signal was read by using an Envision multifunctional plate reader. The signal intensity was used to characterize the degree of the kinase activity. […] IC50 value of 0-100 nM is shown as A, IC50 value of 100-300 nM is shown as B, IC50 value of 300-1000 nM is shown as C, and IC50 value which is greater than 1000 nM is shown as D. NT means not tested.
# T1 sequence (P23458 866-1154 limits assumed): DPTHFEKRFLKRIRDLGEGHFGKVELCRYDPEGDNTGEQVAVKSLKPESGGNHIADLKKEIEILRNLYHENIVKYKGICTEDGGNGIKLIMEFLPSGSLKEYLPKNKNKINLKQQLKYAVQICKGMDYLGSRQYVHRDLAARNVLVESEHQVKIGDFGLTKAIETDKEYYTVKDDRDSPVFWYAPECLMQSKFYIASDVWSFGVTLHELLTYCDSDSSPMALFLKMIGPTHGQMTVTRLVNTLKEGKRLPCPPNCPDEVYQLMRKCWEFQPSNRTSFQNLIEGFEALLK
row,IC50 [nM],SMILES
1,100 to 300,"CC(C)(O)Cn1cc(Nc2nccc(C3=CC4CCC(C3)N4C(=O)[C@@H]3CC3(F)F)n2)cn1 (stereo partly drawn) [Compound 41, ((S)-2,2-Difluorocyclopropyl)(3-(2-((1-(2-hydroxy-2-methylpropyl)-1H-pyrazol-4-yl)amino)pyrimidin-4-yl)-8-azabicyclo[3.2.1]oct-2-en-8-yl)methanone]"
2,100 to 300,"Cn1cc(Nc2nccc(C3=CC4CCC(C3)N4C(=O)[C@@H]3C[C@H]3C#N)n2)cn1 (stereo partly drawn) [Compound 47, (1R,2R)-2-(3-(2-((1-methyl-1H-pyrazol-4-yl)amino)pyrimidin-4-yl)-8-azabicyclo[3.2.1]oct-2-ene-8-formyl)cyclopropane-1-carbonitrile]"
3,100 to 300,"Cn1cc(Nc2ncc(C#N)c(C3=CC4CCC(C3)N4C(=O)NCC(F)(F)F)n2)cn1 (stereo not drawn) [Compound 35, 3-(5-cyano-2-((1-methyl-1H-pyrazol-4-yl)amino)pyrimidin-4-yl)-N-(2,2,2-trifluoroethyl)-8-azabicyclo[3.2.1]oct-2-ene-8-carboxamide]"
4,< 100,"O=C(NCC(F)(F)F)N1C2C=C(c3ccnc(Nc4cnn(CCO)c4)n3)CC1CC2 (stereo not drawn) [Compound 42, 3-(2-((1-(2-hydroxyethyl)-1H-pyrazol-4-yl)amino)pyrimidin-4-yl)-N-(2,2,2-trifluoroethyl)-8-azabicyclo[3.2.1]oct-2-ene-8-carboxamide]"
5,< 100,"O=C(NCC(F)(F)F)N1C2C=C(c3nc(Nc4cnn(C(F)F)c4)ncc3F)CC1CC2 (stereo not drawn) [Compound 24, 3-(2-((1-(difluoromethyl)-1H-pyrazol-4-yl)amino)-5-fluoropyrimidin-4-yl)-N-(2,2,2-trifluoroethyl)-8-azabicyclo[3.2.1]oct-2-ene-8-carboxamide]"
6,< 100,"Cn1cc(Nc2ncc(F)c(C3=C[C@H]4CC[C@@H](C3)N4C(=O)NCC(F)(F)F)n2)cn1 [Compound 12-b, (1R,5S)-3-(5-fluoro-2-((1-methyl-1H-pyrazol-4-yl)amino)pyrimidin-4-yl)-N-(2,2,2-trifluoroethyl)-8-azabicyclo[3.2.1]oct-2-ene-8-carboxamide]"
7,300 to 1000,"Cn1cc(Nc2nccc(C3=CC4CCC(C3)N4C(=O)COCC(F)(F)F)n2)cn1 (stereo not drawn) [Compound 69, 1-(3-(2-((1-methyl-1H-pyrazol-4-yl)amino)pyrimidin-4-yl)-8-azabicyclo[3.2.1]oct-2-en-8-yl)-2-(2,2,2-trifluoroethoxy)-1-one]"
8,< 100,"Cn1cc(Nc2nccc(C3=C[C@H]4CC[C@@H](C3)N4C(=O)NCC(F)(F)F)n2)cn1 [Compound 3-b, (1R,5S)-3-(2-((1-methyl-1H-pyrazol-4-yl)amino)pyrimidin-4-yl)-N-(2,2,2-trifluoroethyl)-8-azabicyclo[3.2.1]oct-2-ene-8-carboxamide]"
9,< 100,"Cn1cc(Nc2nccc(C3=CC4CCC(C3)N4C(=O)C3CCC(F)(F)C3)n2)cn1 (stereo not drawn) [Compound 70, (3,3-difluorocyclopentyl)(3-(2-((1-methyl-1H-pyrazol-4-yl)amino)pyrimidin-4-yl)-8-azabicyclo[3.2.1]oct-2-en-8-yl)methanone]"
10,< 100,"Cc1cnc(Nc2cn(C)nc2C)nc1C1=CC2CCC(C1)N2C(=O)NCC(F)(F)F (stereo not drawn) [Compound 26, 3-(2-((1,3-dimethyl-1H-pyrazol-4-yl)amino)-5-methylpyrimidin-4-yl)-N-(2,2,2-trifluoroethyl)-8-azabicyclo[3.2.1]oct-2-ene-8-carboxamide]"
11,< 100,"Cc1cnc(Nc2cnn(C)c2)nc1C1=CC2CCC(C1)N2C(=O)NCC(F)(F)F (stereo not drawn) [Compound 19, 3-(5-methyl-2-((1-methyl-1H-pyrazol-4-yl)amino)pyrimidin-4-yl)-N-(2,2,2-trifluoroethyl)-8-azabicyclo[3.2.1]oct-2-ene-8-carboxamide]"
12,> 1000,"Cc1cnc(Nc2cn(C)nc2C)nc1C1=C[C@@H]2CC[C@H](C1)N2C(=O)NCC(F)(F)F [Compound 26-a, (1S,5R)-3-(2-((1,3-dimethyl-1H-pyrazol-4-yl)amino)-5-methylpyrimidin-4-yl)-N-(2,2,2-trifluoroethyl)-8-azabicyclo[3.2.1]oct-2-ene-8-carboxamide]"
13,300 to 1000,"Cn1cc(Nc2nccc(C3=CC4CCC(C3)N4C(=O)C3(C#N)CC3)n2)cn1 (stereo not drawn) [Compound 63, 1-(3-(2-((1-methyl-1H-pyrazol-4-yl)amino)pyrimidin-4-yl)-8-azabicyclo[3.2.1]oct-2-ene-8-formyl)cyclopropane-1-carbonitrile]"
14,> 1000,"Cn1cc(Nc2nccc(C3=CC4CCC(C3)N4C(=O)N3CC[C@@H](C#N)C3)n2)cn1 (stereo partly drawn) [Compound 7, (R)-1-(3-(2-((1-methyl-1H-pyrazol-4-yl)amino)pyrimidin-4-yl)-8-azabicyclo[3.2.1]oct-2-ene-8-carbonyl)pyrrolidine-3-nitrile]"
15,< 100,"Cn1cc(Nc2ncc(Cl)c(C3=C[C@H]4CC[C@@H](C3)N4C(=O)[C@@H]3CC3(F)F)n2)cn1 [Compound 23-b, ((1R,5S)-3-(5-chloro-2-((1-methyl-1H-pyrazol-4-yl)amino)pyrimidin-4-yl)-8-azabicyclo[3.2.1]oct-2-en-8-yl)((S)-2,2-difluorocyclopropyl)methanone]"
16,< 100,"Cn1cc(Nc2nccc(C3=CC4CCC(C3)N4C(=O)CC3CC(F)(F)C3)n2)cn1 (stereo not drawn) [Compound 79, 2-(3,3-difluorocyclobutyl)-1-(3-(2-((1-methyl-1H-pyrazol-4-yl)amino)pyrimidin-4-yl)-8-azabicyclo[3.2.1]oct-2-en-8-yl)-1-acetone]"
17,> 1000,"Cn1cc(Nc2nccc(C3=CC4CCC(C3)N4C(=O)c3ccc(C(F)(F)F)cc3)n2)cn1 (stereo not drawn) [Compound 16, (3-(2-((1-methyl-1H-pyrazol-4-yl)amino)pyrimidin-4-yl)-8-azabicyclo[3.2.1]oct-2-en-8-yl)(4-(trifluoromethyl)phenyl)methanone]"
18,> 1000,"Cn1cc(Nc2nccc(C3=CC4CCC(C3)N4C(=O)C(=O)NCC#N)n2)cn1 (stereo not drawn) [Compound 83, N-(cyanomethyl)-2-(3-(2-((1-methyl-1H-pyrazol-4-yl)amino)pyrimidin-4-yl)-8-azabicyclo[3.2.1]oct-2-en-8-yl)-2-oxoacetamide]"
19,> 1000,"Cn1cc(Nc2nccc(C3=CC4CCC(C3)N4C(=O)c3cc(C#N)cs3)n2)cn1 (stereo not drawn) [Compound 18, 5-(3-(2-((1-methyl-1H-pyrazol-4-yl)amino)pyrimidin-4-yl)-8-azabicyclo[3.2.1]oct-2-ene-8-formyl)thiophene-3-carbonitrile]"
20,> 1000,"Cn1cc(Nc2nccc(C3=CC4CCC(C3)N4C(=O)C3(C)CC3(F)F)n2)cn1 (stereo not drawn) [Compound 48, (2,2-difluoro-1-methylcyclopropyl)(3-(2-((1-methyl-1H-pyrazol-4-yl)amino)pyrimidin-4-yl)-8-azabicyclo[3.2.1]oct-2-en-8-yl)methanone]"
21,< 100,"C[C@H](NC(=O)N1C2C=C(c3ccnc(Nc4cnn(C)c4)n3)CC1CC2)C(F)(F)F (stereo partly drawn) [Compound 55, 3-(2-((1-Methyl-1H-pyrazol-4-yl)amino)pyrimidin-4-yl)-N-((S)-1,1,1-trifluoropropane-2-yl)-8-azabicyclo[3.2.1]oct-2-ene-8-carboxamide]"
22,100 to 300,"Cn1cc(Nc2nccc(C3=CC4CCC(C3)N4C(=O)CC#N)n2)cn1 (stereo not drawn) [Compound 61, 3-(3-(2-((1-methyl-1H-pyrazol-4-yl)amino)pyrimidin-4-yl)-8-azabicyclo[3.2.1]oct-2-en-8-yl)-3-oxopropionitrile]"
23,> 1000,"Cn1cc(Nc2nccc(C3=CC4CCC(C3)N4S(=O)(=O)CCC(F)(F)F)n2)cn1 (stereo not drawn) [Compound 6, N-(1-methyl-1H-pyrazol-4-yl)-4-(8-((3,3,3-trifluoropropyl)sulfonyl)-8-azabicyclo[3.2.1]oct-2-en-3-yl)pyrimidin-2-amine]"
24,> 1000,"Cn1cc(Nc2nccc(C3=CC4CCC(C3)N4S(=O)(=O)NCC#N)n2)cn1 (stereo not drawn) [Compound 4, N-(cyanomethyl)-3-(2-((1-methyl-1H-pyrazol-4-yl)amino)pyrimidin-4-yl)-8-azabicyclo[3.2.1]oct-2-ene-8-sulfonamide]"
25,> 1000,"Cn1cc(Nc2nccc(C3=CC4CCC(C3)N4C(=O)C3(C(F)(F)F)CC3)n2)cn1 (stereo not drawn) [Compound 52, (3-(2-((1-methyl-1H-pyrazol-4-yl)amino)pyrimidin-4-yl)-8-azabicyclo[3.2.1]oct-2-en-8-yl)(1-(trifluoromethyl)cyclopropyl)methanone]"
26,300 to 1000,"Cn1cc(Nc2nccc(C3=CC4CCC(C3)N4C(=O)C(=O)NCC(F)(F)F)n2)cn1 (stereo not drawn) [Compound 82, 2-(3-(2-((1-methyl-1H-pyrazol-4-yl)amino)pyrimidin-4-yl)-8-azabicyclo[3.2.1]oct-2-en-8-yl)-2-oxo-N-(2,2,2-trifluoroethyl)acetamide]"
27,> 1000,"Cn1cc(Nc2nccc(C3=CC4CCC(C3)N4C(=O)C3(C)COC3)n2)cn1 (stereo not drawn) [Compound 13, (3-(2-((1-methyl-1H-pyrazol-4-yl)amino)pyrimidin-4-yl)-8-azabicyclo[3.2.1]oct-2-en-8-yl)(3-methyloxetan-3-yl)methanone]"
